Test results reported in patent US7557213B2, “Substituted quinolones and methods of use” (ChemoCentryx, Inc., priority 2005, dated 2009).

Target: T1, CCXCKR2 receptor (Homo sapiens, UniProt P25106)
T1 construct: expressed in transfected cells; host or cells: MDA-MB-435S transfected with pcDNA3.1(+)-hRDC1 and/or MCF-7 (endogenous receptor)
Assay: Displacement of 125I-labeled SDF-1 from the CCXCKR2 receptor on MCF-7 and/or CCXCKR2-transfected MDA-MB-435S cells (radioligand binding, filtration)
Conditions: 125I SDF-1, 3 hr at 4° C., MCF-7 and/or MDA-MB-435S cells; read-out: Activity (concentration displacing at least 50% of the SDF-1 from the CCXCKR2 receptor)

T1 sequence (P25106 whole entry): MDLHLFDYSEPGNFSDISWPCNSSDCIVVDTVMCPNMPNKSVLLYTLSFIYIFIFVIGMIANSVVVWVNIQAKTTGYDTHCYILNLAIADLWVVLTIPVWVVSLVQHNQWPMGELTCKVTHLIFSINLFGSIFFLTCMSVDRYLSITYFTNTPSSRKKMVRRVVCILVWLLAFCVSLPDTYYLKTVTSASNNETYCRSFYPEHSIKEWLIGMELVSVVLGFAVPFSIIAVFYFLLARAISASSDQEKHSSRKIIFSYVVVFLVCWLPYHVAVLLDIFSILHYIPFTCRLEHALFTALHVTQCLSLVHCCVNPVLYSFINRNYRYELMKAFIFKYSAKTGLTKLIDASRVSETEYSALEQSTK

Structure (SMILES)	IC50 [nM]
CN(C)C(=O)c1cccc(C(=O)c2cn(Cc3cccc(Br)n3)c3ccccc3c2=O)c1 [Example 180]	< 100
CSc1ccc(C(=O)c2cn(Cc3cccc(Br)n3)c3ccccc3c2=O)cc1 [Example 186]	< 100
O=C(c1ccc(Cl)nc1)c1cn(Cc2cccc(Br)n2)c2ccccc2c1=O [Example 188]	< 100
COc1ccc(C(=O)c2cn(Cc3cccc(Br)n3)c3ccccc3c2=O)cn1 [Example 189]	< 100
C[S+]([O-])c1ccc(C(=O)c2cn(Cc3cccc(Br)n3)c3ccccc3c2=O)cc1 (stereo not shown) [Example 190]	100 to 500
Cc1cccc(Cn2cc(C(=O)c3cnc4c(c3)OCCO4)c(=O)c3cc(C)c(C)nc32)n1 [Example 191]	100 to 500
COc1ccc(C(=O)c2cn(Cc3cccc(C)n3)c3nc(C)c(C)cc3c2=O)cc1C [Example 192]	100 to 500
COc1ccc(C(=O)c2cn(Cc3cccc(Br)n3)c3ncccc3c2=O)cc1OC [Example 193]	< 100
COc1ccc(C(=O)c2cn(Cc3cccc(C#N)n3)c3ncccc3c2=O)cc1C [Example 194]	< 100
COc1ccc(C(=O)c2cn(Cc3cccc(C(F)(F)F)n3)c3ncccc3c2=O)cc1C [Example 195]	< 100
COc1ccc(C(=O)c2cn(Cc3cccc(C(F)(F)F)c3)c3ncccc3c2=O)cc1C [Example 196]	< 100
COc1ccc(C(=O)c2cn(Cc3cccc(C)n3)c3nc(C)c(C)cc3c2=O)cc1F [Example 199]	500 to 20000
O=C(c1ccc(Cl)cc1)c1cn(Cc2cccc(Br)n2)c2ccccc2c1=O [Example 200]	< 100
COc1ccc(C(=O)c2cn(Cc3cccc(Br)n3)c3cccnc3c2=O)cc1C [Example 201]	500 to 20000
COc1ccc(C(=O)c2cn(Cc3cccc(C(F)(F)F)n3)c3ccccc3c2=O)cc1C [Example 202]	< 100
Cc1cc(C(=O)c2cn(Cc3cccc(Br)n3)c3ccccc3c2=O)ccc1F [Example 203]	< 100
COc1cc(C(=O)c2cn(Cc3cccc(Br)n3)c3ccccc3c2=O)ccc1Cl [Example 204]	< 100
Cc1cccc(Cn2cc(C(=O)c3ccccc3N3CCOCC3)c(=O)c3ccccc32)n1 [Example 205]	< 100
COc1ccc(C(=O)c2cn(Cc3cccc(C)n3)c3cccnc3c2=O)cc1C [Example 206]	500 to 20000
O=C(c1ccc(O)nc1)c1cn(Cc2cccc(Br)n2)c2ccccc2c1=O [Example 210]	500 to 20000
COc1ccc(C(=O)c2cn(Cc3cccc(C#N)n3)c3ccccc3c2=O)cc1F [Example 211]	< 100

Structure (SMILES)	IC50 [nM]
CCc1ccc(C(=O)c2cn(Cc3cccc(C)n3)c3ccccc3c2=O)cn1 [Example 212]	< 100
Cc1ccc(C(=O)c2cn(Cc3cccc(O)n3)c3ccccc3c2=O)cc1C [Example 213]	500 to 20000
COc1ccc(C(=O)c2cn(Cc3cccc(Br)n3)c3ccc(C)nc3c2=O)cc1C [Example 215]	< 100
COc1ccc(C(=O)c2cn(Cc3cccc(C)n3)c3ccc(C)nc3c2=O)cc1C [Example 216]	500 to 20000
COc1ccc(C(=O)c2cn(Cc3cccc(C(F)(F)F)n3)c3ccccc3c2=O)cc1F [Example 217]	< 100
CC(C)Oc1ccc(C(=O)c2cn(Cc3cccc(Br)n3)c3ccccc3c2=O)cc1 [Example 218]	100 to 500
Nc1ccc(C(=O)c2cn(Cc3cccc(Br)n3)c3ccccc3c2=O)cn1 [Example 223]	500 to 20000
COc1ccc(C(=O)c2cn(Cc3cncc(C)n3)c3ccccc3c2=O)cc1F [Example 225]	< 100
COc1ccc(C(=O)c2cn(Cc3cccc(Br)n3)c3nc(C(F)(F)F)ccc3c2=O)cc1F [Example 226]	500 to 20000
Nc1cccc(Cn2cc(C(=O)c3ccc4c(c3)OCCO4)c(=O)c3ccccc32)n1 [Example 230]	100 to 500
O=C(c1ccc2c(c1)OCCO2)c1cn(Cc2cccc(Br)c2)c2ccccc2c1=O [Example 231]	< 100
O=C(c1ccc2c(c1)OCCO2)c1cn(Cc2cccc(Cl)c2)c2ccccc2c1=O [Example 233]	< 100
COc1ccc(C(=O)c2cn(Cc3cccc(Cl)c3)c3ccc(C)nc3c2=O)cc1C [Example 234]	100 to 500
O=C(c1ccc(Cl)nc1)c1cn(Cc2cccc(Cl)c2)c2ccccc2c1=O [Example 236]	500 to 20000
COc1ccc(C(=O)c2cn(Cc3cccc(Br)c3)c3ccccc3c2=O)cn1 [Example 239]	100 to 500
COc1ncc(C(=O)c2cn(Cc3cccc(Cl)c3)c3ccccc3c2=O)cc1C [Example 240]	< 100
O=C(c1ccc(N2CCCC2)nc1)c1cn(Cc2cccc(Br)n2)c2ccccc2c1=O [Example 241]	100 to 500
COc1ccc(C(=O)c2cn(Cc3cccc(Br)n3)c3ccccc3c2=O)nc1C [Example 242]	< 100
CCc1ccc(C(=O)c2cn(Cc3cccc(Cl)c3)c3ccccc3c2=O)cn1 [Example 244]	100 to 500
CN(C)c1ccc(C(=O)c2cn(Cc3cccc(Cl)c3)c3ccccc3c2=O)cn1 [Example 245]	< 100
COc1ccc(C(=O)c2cn(Cc3cccc(Cl)c3)c3ccccc3c2=O)cn1 [Example 246]	< 100

More lines, now with the values ahead:

IC50 [nM]	Structure (SMILES)
< 100	O=C(c1ccc(Cl)c(F)c1)c1cn(Cc2cccc(Br)n2)c2ccccc2c1=O [Example 179]
500 to 20000	COc1ccc(C(=O)c2cn(Cc3cccc(Br)n3)c3ccccc3c2=O)cc1C(=O)N(C)C [Example 181]
< 100	Cc1cc(C(=O)c2cn(Cc3cccc(Br)n3)c3ccccc3c2=O)ccc1Cl [Example 182]
< 100	COc1ccc(C(=O)c2cn(Cc3cccc(C)n3)c3ccccc3c2=O)cc1F [Example 183]
< 100	Cc1cccc(Cn2cc(C(=O)c3ccc(Cl)cc3)c(=O)c3ccccc32)n1 [Example 184]
< 100	Cc1ccc(C(=O)c2cn(Cc3cccc(Br)n3)c3ccccc3c2=O)c(C)n1 [Example 185]
< 100	O=C(c1ccc(Cl)s1)c1cn(Cc2cccc(Br)n2)c2ccccc2c1=O [Example 187]
< 100	CN(C)c1ccc(C(=O)c2cn(Cc3cccc(Br)n3)c3ccccc3c2=O)cn1 [Example 197]
< 100	COc1ncc(C(=O)c2cn(Cc3cccc(Br)n3)c3ccccc3c2=O)cc1C [Example 198]
< 100	COc1ccc(C(=O)c2cn(Cc3cccc(C#N)n3)c3ccccc3c2=O)cc1C [Example 207]
500 to 20000	Cc1cccc(Cn2cc(C(=O)c3cc(C)on3)c(=O)c3ccccc32)n1 [Example 208]
100 to 500	COc1ccc(C(=O)c2cn(Cc3cccc(N)n3)c3ccccc3c2=O)cc1C [Example 209]
100 to 500	Cc1cccc(Cn2cc(C(=O)c3ccc(N(C)C)nc3)c(=O)c3ccccc32)n1 [Example 214]
100 to 500	Cc1ncccc1C(=O)c1cn(Cc2cccc(Br)n2)c2ccccc2c1=O [Example 219]
< 100	Cc1ccc(C(=O)c2cn(Cc3cccc(Br)n3)c3ccccc3c2=O)cn1 [Example 220]
500 to 20000	Cc1ccc(C(=O)c2cn(Cc3cccc(C)n3)c3ccccc3c2=O)nc1 [Example 221]
500 to 20000	O=C(c1ccc(C(F)(F)F)nc1)c1cn(Cc2cccc(Br)c2)c2ccccc2c1=O [Example 224]
< 100	Cc1ccc(C(=O)c2cn(Cc3cccc(Br)c3)c3ccccc3c2=O)cn1 [Example 227]
< 100	N#Cc1cccc(Cn2cc(C(=O)c3ccc4c(c3)OCCO4)c(=O)c3ccccc32)n1 [Example 228]
100 to 500	O=C(c1ccc2c(c1)OCCO2)c1cn(Cc2cccc(C(F)(F)F)n2)c2ccccc2c1=O [Example 229]
100 to 500	O=C(c1ccc2c(c1)OCCO2)c1cn(Cc2cccc(C(F)(F)F)c2)c2ccccc2c1=O [Example 232]
< 100	CCN(CC)c1ccc(C(=O)c2cn(Cc3cccc(Br)c3)c3ccccc3c2=O)cn1 [Example 235]
500 to 20000	COc1ccc(C(=O)c2cn(Cc3cccc(Br)n3)c3ccc(C)nc3c2=O)cc1F [Example 237]
500 to 20000	COc1ccc(C(=O)c2cn(Cc3cccc(Br)c3)c3ccc(C)nc3c2=O)cc1F [Example 238]
< 100	COc1ccc(C(=O)c2cn(Cc3cccc(Cl)c3)c3ccccc3c2=O)cc1 [Example 243]
